Experimental data from US6596863B2, “Medical composition containing nitroetheneamine Derivative or salt there of as active constituent” (Ishihara Sangyo Kaisha, Ltd., priority 1998, dated 2003).
Where two headings read alike, the source gives them in different places.

Legend:
[1] = target: T1, human MMP-9 (gelatinase B) (Homo sapiens, UniProt P14780); assay: Inhibition activity against human MMP-9 (gelatinase B), fluorescent peptide substrate; format: biochemical
T1 construct: endogenous in cells; host or cells: HT1080 human fibrosarcoma cells (ATCC CCL-121), PMA-stimulated; enzyme purified from the culture supernatant
T1 sequence (P14780 107-707 limits assumed): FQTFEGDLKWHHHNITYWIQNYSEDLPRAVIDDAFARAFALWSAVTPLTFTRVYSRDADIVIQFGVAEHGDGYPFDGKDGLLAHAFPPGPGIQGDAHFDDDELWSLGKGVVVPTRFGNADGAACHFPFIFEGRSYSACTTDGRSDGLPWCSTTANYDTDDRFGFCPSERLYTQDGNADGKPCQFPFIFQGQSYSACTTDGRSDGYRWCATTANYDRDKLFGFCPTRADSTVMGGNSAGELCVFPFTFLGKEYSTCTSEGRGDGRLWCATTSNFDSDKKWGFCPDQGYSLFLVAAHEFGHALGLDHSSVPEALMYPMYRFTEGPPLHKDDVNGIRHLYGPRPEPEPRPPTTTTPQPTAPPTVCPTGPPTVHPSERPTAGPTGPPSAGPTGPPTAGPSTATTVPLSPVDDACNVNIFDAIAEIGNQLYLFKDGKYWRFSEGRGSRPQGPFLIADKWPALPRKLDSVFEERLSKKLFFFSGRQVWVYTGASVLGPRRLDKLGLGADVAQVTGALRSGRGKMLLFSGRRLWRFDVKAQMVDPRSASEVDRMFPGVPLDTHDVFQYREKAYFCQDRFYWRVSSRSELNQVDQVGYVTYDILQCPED
Method in brief: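 MMP-9 purified from PMA-stimulated (10 ng/ml) HT1080 supernatant, or commercial enzyme (0.0125-0.025 unit/ml or 0.2 μg/ml final), incubated with compound and 10 μM final Mca-Pro-Leu-Gly-Leu-Dpa-Ala-Arg-NH2 fluorescent substrate at 37 °C for 3 h in the dark. Precursor enzyme activated with APMA.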

[2] = compounds of the formula (I), 1st measurement, read-out: MMP-9 inhibition activities IC50, 1st
[3] = compounds of the formula (I), average of 1st and 2nd (or single measurement), read-out: MMP-9 inhibition activities IC50, Average
[4] = compounds of the formula (I), 2nd measurement, read-out: MMP-9 inhibition activities IC50, 2nd
[5] = intermediates, compounds of the formula (IV), 1st measurement, read-out: MMP-9 inhibition activities IC50, 1st
[6] = intermediates, compounds of the formula (IV), 2nd measurement, read-out: MMP-9 inhibition activities IC50, 2nd
[7] = intermediates, compounds of the formula (IV), average of 1st and 2nd (or single measurement), read-out: MMP-9 inhibition activities IC50, Average

| SMILES | IC50 [1, 2] | IC50 [1, 3] | melting point | IC50 [1, 4] | IC50 [1, 5] | IC50 [1, 6] | IC50 [1, 7] |
| --- | --- | --- | --- | --- | --- | --- | --- |
| Cc1cc(C)c(S(C)(=O)=O)c(NNC(=C[N+](=O)[O-])NS(C)(=O)=O)n1 [compound 202] | 6.3 µM | 6.3 µM | 170 °C (dec.) | – | – | – | – |
| CNC(=C[N+](=O)[O-])NNc1cc(C(F)(F)F)cc(C)n1 [compound 131] | 2 µM | 2.5 µM | 165 °C (dec.) | 3 µM | – | – | – |
| NNC(=C[N+](=O)[O-])Nc1ccc(O)cc1 [compound 76] | 34 µM | 33.9 µM | 190 °C (dec.) | 33.8 µM | – | – | – |
| COc1ccccc1NC(=C[N+](=O)[O-])SC [Intermediate 25] | – | – | 128 to 130 °C | – | 38.9 µM | 35.3 µM | 37.1 µM |
| CNC(=C[N+](=O)[O-])NN=Cc1cccc(C(F)(F)F)c1 [compound 167] | 14 µM | 14 µM | 180 °C | – | – | – | – |
| CSC(=C[N+](=O)[O-])NC1CC1 [Intermediate 2] | – | – | 101.5 to 106 °C | – | 31.4 µM | 59.9 µM | 45.7 µM |
| CSC(=C[N+](=O)[O-])Nc1c(C)nn(C)c1C [Intermediate 54] | – | – | 184 to 188 °C | – | 38.7 µM | 33.9 µM | 36.3 µM |
| COc1ccccc1NC(=C[N+](=O)[O-])NN [compound 57] | 38.7 µM | 36.6 µM | 135.5 to 136 °C | 35.1 µM | – | – | – |
| COc1ccc(NC(=C[N+](=O)[O-])NN)cc1OC [compound 56] | 39.9 µM | 36.7 µM | 148 °C | 33.5 µM | – | – | – |
| NNC(=C[N+](=O)[O-])Nc1ccc(F)cc1 [compound 53] | 22.6 µM | 26 µM | 183.5 °C (dec.) | 29.3 µM | – | – | – |
| CNC(=C[N+](=O)[O-])NN=Cc1ccc(Cl)cc1 [compound 136] | 21.3 µM | 25.3 µM | 186 °C (dec.) | 29.2 µM | – | – | – |
| CNC(=C[N+](=O)[O-])NNc1c(Cl)cncc1Cl [compound 186] | 12.3 µM | 12.3 µM | 197 °C (dec.) | – | – | – | – |
| CNC(=C[N+](=O)[O-])NNc1ncccn1 [compound 45] | 33.8 µM | 30.1 µM | 182 to 183 °C (dec.) | 26.3 µM | – | – | – |
| CNC(=C[N+](=O)[O-])NNc1cc(C(F)(F)F)cc(OCCCc2cccnc2)n1 [compound 119] | 28 µM | 25.7 µM | 149 °C (dec.) | 23.4 µM | – | – | – |
| CNC(=C[N+](=O)[O-])NNc1ccc(Cl)cn1 [compound 172] | 0.82 µM | 0.96 µM | 206 °C (dec.) | 1.1 µM | – | – | – |
| CNC(=C[N+](=O)[O-])NN=CC=Cc1ccccc1 [compound 144] | 4.8 µM | 9.9 µM | 180 °C (dec.) | 14.9 µM | – | – | – |
| CNC(=C[N+](=O)[O-])NN=Cc1ccc(C(=O)O)cc1 [compound 142] | 20.4 µM | 21.4 µM | 210 °C (dec.) | 22.4 µM | – | – | – |
| CNC(=C[N+](=O)[O-])NNc1ccc(C(F)(F)F)cn1 [Compound No. 19] | 10.1 µM | 11.7 µM | 207 °C (dec.) | 13.2 µM | – | – | – |
| CNC(=C[N+](=O)[O-])NN=Cc1ccccc1 [compound 18] | 18.3 µM | 22.5 µM | 159 to 160 °C | 26.6 µM | – | – | – |

| SMILES | IC50 [1, 2] | IC50 [1, 3] | melting point | IC50 [1, 4] | IC50 [1, 5] | IC50 [1, 6] | IC50 [1, 7] |
| --- | --- | --- | --- | --- | --- | --- | --- |
| CNC(=C[N+](=O)[O-])NNc1ncc(C(F)(F)F)cc1[N+](=O)[O-] [compound 96] | 24.5 µM | 22.9 µM | 165 to 167 °C (dec.) | 21.3 µM | – | – | – |
| NNC(=C[N+](=O)[O-])Nc1ccc2cn[nH]c2c1 [compound 152] | 29.6 µM | 23 µM | 209 to 213 °C (dec.) | 16.3 µM | – | – | – |
| CCCCOc1cc(C(F)(F)F)cc(NNC(=C[N+](=O)[O-])NC)n1 [compound 177] | 10.7 µM | 8.4 µM | 169 °C (dec.) | 6.1 µM | – | – | – |
| CSC(=C[N+](=O)[O-])Nc1ccc2cn[nH]c2c1 [Intermediate 55] | – | – | 214 to 216 °C | – | 32.5 µM | 25.5 µM | 29 µM |
| CNC(=C[N+](=O)[O-])NNc1cc(C(F)(F)F)ccn1 [compound 94] | 4.2 µM | 5.6 µM | 174 to 175 °C (dec.) | 7 µM | – | – | – |
| CCNC(=C[N+](=O)[O-])NN [compound 117] | 30 µM | 34.7 µM | 93.5 to 98.5 °C | 39.3 µM | – | – | – |
| NC(=C[N+](=O)[O-])NNc1cc(C(F)(F)F)cc(Cl)n1 [compound 103] | 8.9 µM | 9.8 µM | 201 to 202 °C (dec.) | 10.7 µM | – | – | – |
| COc1cccc(NC(=C[N+](=O)[O-])NN)c1 [compound 52] | 21.6 µM | 25.9 µM | 144 °C | 30.2 µM | – | – | – |
| NNC(=C[N+](=O)[O-])NC1Cc2ccccc2C1 [compound 112] | 38.2 µM | 34.6 µM | 193 to 197 °C (dec.) | 30.9 µM | – | – | – |
| CNC(=C[N+](=O)[O-])NNc1cc(C(F)(F)F)cc(OCC2CC2)n1 [compound 184] | 20 µM | 15.3 µM | 167 °C (dec.) | 10.6 µM | – | – | – |
| CNC(=C[N+](=O)[O-])NNc1cc(C(F)(F)F)cc(OCc2cccnc2)n1 [compound 123] | 13.9 µM | 13.2 µM | 131 °C (dec.) | 12.4 µM | – | – | – |
| CNC(=C[N+](=O)[O-])NNc1ccccc1Cl [compound 8] | 36.7 µM | 33.4 µM | 178 °C (dec.) | 30.1 µM | – | – | – |
| CSC(=C[N+](=O)[O-])Nc1ccc(O)cc1 [Intermediate 12] | – | – | 193 °C (dec.) | – | 25.3 µM | 24.5 µM | 24.9 µM |
| CNC(=C[N+](=O)[O-])NN=Cc1ncc(C(F)(F)F)cc1Cl [compound 179] | 8.3 µM | 8.3 µM | 171 °C (dec.) | – | – | – | – |
| CNC(=C[N+](=O)[O-])NNc1cccc(C(=O)O)c1 [compound 42] | 41.4 µM | 41.4 µM | 250 °C | 40.7 µM | – | – | – |
| CNC(=C[N+](=O)[O-])NNc1cccc(Cl)n1 [compound 145] | 1.7 µM | 2.9 µM | 221 °C (dec.) | 4.1 µM | – | – | – |
| NNC(=C[N+](=O)[O-])NCc1cccc(C(F)(F)F)c1 [compound 77] | 41.4 µM | 38.3 µM | 155 °C | 35.2 µM | – | – | – |
| CNC(=C[N+](=O)[O-])NNc1ncc(C(F)(F)F)cc1Cl [compound 21] | 11.7 µM | 14.9 µM | 168 °C (dec.) | 18.1 µM | – | – | – |
| CNC(=C[N+](=O)[O-])NNc1ccccc1C [compound 14] | 47.4 µM | 44.8 µM | 171 °C (dec.) | 42.2 µM | – | – | – |
